These results are taken from patent US12201632B2, “Levoketoconazole for treatment of congenital adrenal hyperplasia and primary aldosteronism” (Strongbridge Dublin Limited, priority 2018, dated 2025).

One assay concerns HAC15 cells. Nature of the assay: Cortisol production by HAC15 cells (immunoassay). The class given is cell-based, Human. The conditions noted are these: HAC15, after 3 days of treatment (FIG. 1B). As for the experimental part: Human adrenocortical carcinoma HAC15 and mouse corticotroph AtT20 cells were used, purchased as a kind gift by Dr. W. Rainey, and obtained from Dr. J. Tooze (European Organization for Molecular Biology), respectively. Both cell lines were cultured in 75 cm^2 flasks at 37° C. in a humidified incubator (Greiner Bio-One, Alphen a/d Rijn, the Netherlands) at 5% CO2. Dulbecco's Modified Eagle Medium F12 containing 5% fetal calf serum was used for HAC15, whereas AtT20 cells were cultured in Dulbecco's minimal essential medium (DMEM) supplemented with 10% fetal calf serum. Both mediums were supplemented with L-glutamine (2 mmol/L) and penicillin (10^5 U/L). Short tandem repeat (str) profiling using a Powerplex Kit (Promega, Leiden, the Netherlands) of HAC15 and AtT20 gave results consistent with the ATCC database, confirming the identity of both cell lines. Medium and supplements were obtained from Invitrogen, Breda, the Netherlands. Once a week, cells were harvested with trypsin (0.05%)-EDTA (0.53 mM) and resuspended in culture medium. Levoketoconazole (COR-003) and racemic ketoconazole (both from Cortendo AB) were dissolved in absolute ethanol (EtOH), according to manufacturer's instructions, and stored at −20° C. at a stock concentration of […]. At the start of each experiment, both drugs were freshly prepared and diluted in EtOH in the correct concentrations. Synacten (synthetic ACTH, Novartis Pharma A.G.) stock concentration was stored at 4° C. and dissolved in culture medium at the day of use. The final concentrations of ACTH were chosen based on a dose-response curve in HAC15 cells and previously reported studies in the literature. For HAC15, 200,000 and 100,000 cells were plated in 0.5 ml medium in 24 well plates for experiments of 1 and 3 days, respectively. […]
Cortisol concentrations were measured in the supernatant using a chemiluminescence immunoassay system (Immulite 2000XPi; Siemens DPC Inc., Los Angeles, Calif., USA). In addition, we carried out multi-steroid analysis by liquid chromatography/mass spectrometry (LC/MS-MS) to accurately quantify androstenedione, corticosterone, cortisol, 11-deoxycortisol, DHEA, DHEAS, progesterone, 17-hydroxyprogesterone, and testosterone. […] Steroids were quantified with respect to a calibration series, with internal standards. Steroids were quantified on a Xevo TQS LC-MS/MS (Waters Chromatography).
Statistical analysis was performed using Graphpad Prism 6.0 (Graphpad Software, San Diego, CA). […] Effects of both compounds on the steroid profile were measured as absolute change compared to control and compared using the Student's t-test. When assessing differences between effects of both compounds, the percentage change was evaluated and compared in order to correct for differences in the vehicle treated control cells. […]

Another assay concerns AtT20 cells. Put plainly: Cell number of corticotroph pituitary AtT20 cells. The assay is classed as cell-based, mouse. Particulars: for IC50: AtT20, after 7 days, read-out: IC50 inhibition of cell number. As for the experimental part: Human adrenocortical carcinoma HAC15 and mouse corticotroph AtT20 cells were used, purchased as a kind gift by Dr. W. Rainey, and obtained from Dr. J. Tooze (European Organization for Molecular Biology), respectively. Both cell lines were cultured in 75 cm^2 flasks at 37° C. in a humidified incubator (Greiner Bio-One, Alphen a/d Rijn, the Netherlands) at 5% CO2. Dulbecco's Modified Eagle Medium F12 containing 5% fetal calf serum was used for HAC15, whereas AtT20 cells were cultured in Dulbecco's minimal essential medium (DMEM) supplemented with 10% fetal calf serum. Both mediums were supplemented with L-glutamine (2 mmol/L) and penicillin (10^5 U/L). Short tandem repeat (str) profiling using a Powerplex Kit (Promega, Leiden, the Netherlands) of HAC15 and AtT20 gave results consistent with the ATCC database, confirming the identity of both cell lines. Medium and supplements were obtained from Invitrogen, Breda, the Netherlands. Once a week, cells were harvested with trypsin (0.05%)-EDTA (0.53 mM) and resuspended in culture medium. Levoketoconazole (COR-003) and racemic ketoconazole (both from Cortendo AB) were dissolved in absolute ethanol (EtOH), according to manufacturer's instructions, and stored at −20° C. at a stock concentration of 10^−2 μM. At the start of each experiment, both drugs were freshly prepared and diluted in EtOH in the correct concentrations. Synacten (synthetic ACTH, Novartis Pharma A.G.) stock concentration was stored at 4° C. and dissolved in culture medium at the day of use. The final concentrations of ACTH were chosen based on a dose-response curve in HAC15 cells and previously reported studies in the literature. For HAC15, 200,000 and 100,000 cells were plated in 0.5 ml medium in 24 well plates for experiments of 1 and 3 days, respectively. For AtT20, cell amounts were 100,000 and 30,000. One day after seeding the HAC15 cells, the medium was refreshed and cells were treated 1 or 3 days in quadruplicate with levoketoconazole or racemic ketoconazole (0.05-5 μM), with or without 10 nM ACTH. To study effects of both compounds on pituitary AtT20 cells, concentrations of 0.1 to 10 μM of both drugs were used. Controls were vehicle treated. […] All cell culture experiments were carried out at least twice.
As a measure of cell number, DNA concentrations were determined using the bisbenzimide fluorescent dye (Hoechst 33258, Sigma Aldrich), as previously described.
Statistical analysis was performed using Graphpad Prism 6.0 (Graphpad Software, San Diego, CA). Non-linear regression curve fitting program was used to calculate the half maximal inhibitory concentrations (IC50) on cortisol production. Effects of both compounds on the steroid profile were measured as absolute change compared to control and compared using the Student's t-test. When assessing differences between effects of both compounds, the percentage change was evaluated and compared in order to correct for differences in the vehicle treated control cells. Values of P<0.05 were considered statistically significant and data are presented as mean SEM.

[1] abbreviates: AtT20, after 3 and 7 days of treatment.

As usually defined, the IC50 is the concentration that inhibits the measured activity by half.

Where two headings read alike, the source gives them in different places.

Take `CC(=O)N1CCN(c2ccc(OCC3COC(Cn4ccnc4)(c4ccc(Cl)cc4Cl)O3)cc2)CC1` (racemic) [racemic ketoconazole, Ketoconazole]: the IC50 in the assay on HAC15 cells (Homo sapiens, 72 h) amounted to 611 nM; in the assay with AtT20 cells (Mus musculus, 168 h) it was 5.81 µM. In addition, the “effect on cell number” value is on record as “inhibited cell number” in the assay with AtT20 cells (setting [1]) and “no effect” in the assay with AtT20 cells (AtT20, after 24 h of treatment).

Turning to `CC(=O)N1CCN(c2ccc(OC[C@@H]3CO[C@@](Cn4ccnc4)(c4ccc(Cl)cc4Cl)O3)cc2)CC1` (relative stereo) [levoketoconazole, 2S,4R cis-1-acetyl-4-[4-[[2-(2,4-dichlorophenyl)-2-(1H-imidazol-1-ylmethyl)-1,3-dioxolan-4-yl]methoxyl]phenyl]piperazine], the IC50 was found to be 300 nM in the assay on HAC15 cells and 1.05 µM in the assay on AtT20 cells. Besides, the “effect on cell number” value is given as “inhibited cell number” in the assay on AtT20 cells (setting [1]) and “no effect” in the assay on AtT20 cells (AtT20, after 24 h of treatment).
